Test results taken from publication PMC7928206 (Toxicology in vitro : an international journal published in …, 2021).

Assays:
[1] = molecular target: rat serum butyrylcholinesterase (BChE) (Rattus norvegicus, UniProt Q9JKC1); type: biochemical
[2] = molecular target: T1, rat brain acetylcholinesterase (AChE) (Rattus norvegicus, UniProt P37136); type: biochemical; conditions: in brain and peripheral tissues
T1 sequence (P37136 32-614): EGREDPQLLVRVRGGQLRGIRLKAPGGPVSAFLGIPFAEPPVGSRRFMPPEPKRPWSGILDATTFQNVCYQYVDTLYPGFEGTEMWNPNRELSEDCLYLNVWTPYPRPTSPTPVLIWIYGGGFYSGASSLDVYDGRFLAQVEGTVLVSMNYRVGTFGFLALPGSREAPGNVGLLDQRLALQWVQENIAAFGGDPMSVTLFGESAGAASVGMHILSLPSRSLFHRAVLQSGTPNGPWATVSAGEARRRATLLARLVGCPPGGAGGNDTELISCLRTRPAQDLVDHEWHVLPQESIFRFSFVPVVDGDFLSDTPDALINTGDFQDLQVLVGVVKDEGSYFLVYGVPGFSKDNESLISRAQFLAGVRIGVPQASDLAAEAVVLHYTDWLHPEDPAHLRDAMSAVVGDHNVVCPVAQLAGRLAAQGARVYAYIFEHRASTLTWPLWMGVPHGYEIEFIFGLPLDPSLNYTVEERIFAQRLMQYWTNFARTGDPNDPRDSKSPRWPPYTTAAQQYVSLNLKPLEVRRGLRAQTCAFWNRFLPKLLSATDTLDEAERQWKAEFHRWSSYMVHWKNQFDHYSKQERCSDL

[3] = Observed stability of the compound; conditions: also propensity to adhere to glass

Sequence of rat serum butyrylcholinesterase (BChE) (Q9JKC1 24-597): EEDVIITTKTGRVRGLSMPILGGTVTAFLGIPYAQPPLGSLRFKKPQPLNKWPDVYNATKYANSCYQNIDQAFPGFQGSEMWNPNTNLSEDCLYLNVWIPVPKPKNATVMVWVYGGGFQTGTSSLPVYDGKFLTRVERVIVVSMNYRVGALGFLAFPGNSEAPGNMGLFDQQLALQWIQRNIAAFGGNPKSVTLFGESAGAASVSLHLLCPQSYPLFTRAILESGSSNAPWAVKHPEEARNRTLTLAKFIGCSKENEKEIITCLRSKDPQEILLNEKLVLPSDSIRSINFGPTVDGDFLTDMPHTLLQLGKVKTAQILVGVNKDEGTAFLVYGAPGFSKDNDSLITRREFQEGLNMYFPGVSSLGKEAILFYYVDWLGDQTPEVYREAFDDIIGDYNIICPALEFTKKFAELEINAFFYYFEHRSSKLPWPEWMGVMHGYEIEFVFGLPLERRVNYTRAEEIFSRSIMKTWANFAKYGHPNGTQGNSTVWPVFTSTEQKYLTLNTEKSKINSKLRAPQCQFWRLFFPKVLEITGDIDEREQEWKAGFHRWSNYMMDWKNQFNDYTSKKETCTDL

With `COP(=O)(OC)SCn1nnc2ccccc2c1=O` [Azinphos-methyl-oxon] the “Serum BChE inhibition, result in words” value [1] was “not good inhibitors of serum BChE”.

For `CCOP(=O)(OCC)Oc1nc(Cl)c(Cl)cc1Cl` [Chlorpyrifos-oxon], the “fold more potent AChE inhibitor than ethyl-ronnel-oxon” value [2] was “about 70 fold”.

With `CCOP(=O)(OCC)Oc1cc(C)nc(C(C)C)n1` [Diazoxon] the “stability, result in words” value [3] was “particularly unstable”.
